Test results taken from patent US11913018B2, “In vitro production of expanded potential stem cells” (GENOME RESEARCH LIMITED, priority 2014, dated 2024).

Experiments:
human EPSCs = assay: Culture and maintenance of human EPSCs; format: cell-based
Source text: We also investigated whether human ESCs could survive and proliferate in EPSCM. H1 hESCs were maintained in standard FGF2 containing media on feeders. H1 cells survived culture in EPSCM and morphologically distinct 3-dimensional colonies emerged within one passage. Continued culture allowed establishment of a stable line which we called H1-EPSCs.
Human iPSC lines were also produced from human neural stem cells, and from human fetal or adult skin fibroblast cells using the six-factor reprogramming technology described in Wang et al (2011) and cultured for 2-3 weeks on feeders. The resulting iPSCs were switched to EPSCM and transgene free stable lines were established (EPSC-iPSCs). (FIG. 6). Stable human EPSC-iPSC lines have been passaged for over 30 passages in EPSCM.
We made several reporter EPSC lines that have a GFP or mCherry expression cassette at loci including Oct4, Sox2 and ROSA26. […] Importantly, these reporter cells provide a convenient way to assess the culture condition. […] However, we have also observed cases where EPSCM supplemented with fewer than six inhibitors has been able to obtain EPSCs. For example, where the EPSCM is supplemented with a chemically defined basal medium, such as Albumax II, it has been observed that fewer than six inhibitors are required obtain EPSCs. […]

EPSCs = assay: EPSCM with other wnt inhibitor in place of XAV939; format: cell-based
AB2.2 mouse ESCs = assay: TE contribution of mouse ESCs cultured in inhibitor combinations, injected to 8-cell host embryos; format: cell-based; details: AB2.2 mouse ESCs cultured at least 5 passages, chimera blastocysts co-stained for mCherry and Cdx2
Source text: Mouse EPSCs were initially derived and maintained in the standard EPSCM that contains six inhibitors (see materials and methods). To determine the effects of individual inhibitors in EPSCM and to explore the possibility that fewer inhibitors might be sufficient for the expanded potential in mouse stem cells, we cultured AB2.2 mouse ESCs in various combinations of inhibitors, initially based on the 2i/LIF medium, for at least 5 passages before injected to 8-cell host embryos. The chimera blastocysts were co-stained for mCherry and Cdx2 for TE contribution.
Injections were carried out with a Nikon Eclipse TE2000-U inverted microscope unit. ESC/EPSC microinjection was performed at room temperature on the inverted lid of a 100-mm falcon culture dish in an injection drop of 1.0 ml M2 medium (Sigma) The embryo was injected with 6-8 cells per 8-cell stage embryo for bulk injection or 1 cell per embryo for single cell injection. After 45-50 embryos have been injected, the injected embryos were washed three times in KSOM (Millipore) containing 3.0 mg/ml BSA, Embryos were then transferred into a well of four-well plate containing 1.0 ml KSOM. After overnight culture, 20-25 injected embryos were transferred into both uterus of a foster recipient.

Jak/Stat pathway = assay: LIF response in ESCs and EPSCs; format: cell-based, mouse; details: adding LIF to EPSCs
Procedure: For LIF stimulation, 1.0×10^6 cells were seeded in […] for 24 hours. Cells were washed with PBS and cultured in DMEM/F12/KSR for 4 hours, then LIF was supplemented at concentration of 0.0, 0.5, 1.0, 5.0 and 10.0 ng/ml for 30 minutes. Whole cell protein was extracted for Western blot using pSTAT3 (Cell signalling) and STAT3 (BD Biosciences) antibodies. α-Tubulin (Abcam) was used as loading control.
To analyse the expression of down-stream target genes of Jak-Stat3 and MAPK signalling at transcription level after LIF stimulation, both E14Tg2a ESCs and EPSCs were deprived of LIF for 4 hours as above, LIF 1.0 ng/ml was supplemented for 1 hour, total RNA was extracted and reverse transcribed to make cDNA. qPCR was performed using Taqman Gene Expression Assays (ABI)

For `CCOc1nc(NC(=O)Cc2cc(OC)ccc2OC)cc(N)c1C#N` [JNKi], the “effect of inhibitor absence on human EPSC culture” value (human EPSCs) was “absence caused gradual deterioration”.
In the case of `Cc1cc(/C=C2\SC(=O)N(c3ccccc3)C2=O)c(C)n1-c1cccnc1` [iCRT 14], the “use as the wnt inhibitor in EPSCM in place of XAV939” value (EPSCs) was “successfully used”.
`Cc1ccc2nc(NC(=O)CSc3nc4c(c(=O)n3-c3ccccc3)SCC4)sc2c1` [IWP-2] was tested, and the “use as the wnt inhibitor in EPSCM in place of XAV939” value (EPSCs) was “successfully used”.
For `CN1CCN(C2CCC(n3cc(-c4ccc(Oc5ccccc5)cc4)c4c(N)ncnc43)CC2)CC1` (centres unmarked) [A419259], the “TE contribution on adding inhibitor to the 2i/LIF (2i) medium” value (AB2.2 mouse ESCs) was “substantially increased TE contribution”.
With `Oc1nc(-c2ccc(C(F)(F)F)cc2)nc2c1CSCC2` [XAV939] the “TE contribution on adding inhibitor to the 2i/LIF (2i) medium” value (AB2.2 mouse ESCs) was “substantially increased TE contribution”.
For “LIF: leukemia inhibitory factor, a cytokine”, the “expression of Jak/Stat downstream genes” value (Jak/Stat pathway) was “upregulated expression of Jak/Stat downstream genes” and the “phosphorylation of Stat3” value (Jak/Stat pathway) was “increased phosphorylation of Stat3”.
With `C[S+]([O-])c1ccc(-c2nc(-c3ccncc3)c(-c3ccc(F)cc3)[nH]2)cc1` (centres unmarked) [p38i] the “effect of inhibitor absence on human EPSC culture” value (human EPSCs) was “absence caused gradual deterioration”.
